Series [1] addresses T1, IRAK4 (Homo sapiens (Human), UniProt Q9NWZ3). Kind of series: Screening the compounds against IRAK4 with ATP (Caliper, FAM-labeled peptide). It counts as biochemical. Conditions: for IC50: read-out: IC50 (nM) (10 μM ATP), IRAK4 kinase, 10 μM ATP. Summed up: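 Enzyme preincubated with compound 10 min at room temperature in 50 mM HEPES pH 7.5, 0.0015% Brij-35; reaction started with FAM-labeled peptide and ATP at 28° C, stopped with EDTA.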

For series [2], the target named is T1, IRAK4. Kind of series: Kinase binding ability (KINOMEscan site-directed competition binding assay). Conditions: for Kd: Kd between IRAK4 and compound. As for the experimental part:
The Equilibrium dissociation constant reflected the test compound's kinase binding (Kd). The KINOMEscan, a site-directed competition binding assay, was used to measure interactions between test compounds and specific kinases. The kinase-tagged T7 phage strains were derived from the BL21 strain's E. coli host. T7 phage was used to infect E. coli, which was then incubated until lysis occurred. The remaining kinases were produced in HEK-293 cells and tagged with DNA. To create affinity resins for kinase, streptavidin-coated magnetic beads were treated with biotinylated small molecule ligands. The assay consists of three components: a DNA-tagged kinase, an immobilized ligand, and the test compound. An immobilized ligand could compete with the compound binding the kinase active site. The affinity beads were washed with wash buffer and re-suspended in elution buffer following reactions in a polypropylene 384-well plate. qPCR of the kinase-DNA tag was used to assess the test compound's ability to bind with the selected kinase. The assay was carried out in accordance with the manufacturer's instructions (Eurofins DiscoverX Corporation).
Binding constants (Kd) were calculated with a standard dose-response curve using the Hill equation: […]

Series [3] is described as follows: Metabolic stability in human liver microsomes. It counts as in vitro ADME. Conditions: for half-life: NADPH, 37° C., read-out: Human microsome (t1/2). As for the experimental part: (§1) The appropriate concentrations of microsomes working solutions (0.56 mg/mL) were prepared in potassium phosphate buffer. The test compounds were incubated with Human, SD Rat, CD-1 Mouse and Beagle Dog liver microsomes for 10 min at 37° C. with constant shaking. The reaction was initiated by the addition of nicotinamide adenine dinucleotide phosphate (NADPH) cofactor after a 10 min pre-incubation. At 5, 15, 30, 45, and 60 min, the samples were taken and placed into the stop solution (Cold acetonitrile containing 200 ng/mL tolbutamide and 200 ng/mL labetalol as internal standards). All sampling plates were shaken for 10 min, then centrifuged at 4000 rpm for 20 minutes at 4° C. Each supernatant of bioanalysis plate was sealed and shaken for 10 minutes prior to LC-MS analysis.
(Microsomes from liver hold many membrane-bound enzymes, among them those of drug oxidation.)

The nature of series [4]: Metabolic stability in rat liver microsomes. It is filed as in vitro ADME, SD Rat. The settings on record: for half-life: SD rat liver microsomes, NADPH, 37° C., read-out: Rat microsome (t1/2). As for the experimental part: as §1
Series [5] in a line: Metabolic stability in mouse liver microsomes. It is filed as in vitro ADME, CD-1 Mouse. The settings on record: for half-life: CD-1 mouse liver microsomes, NADPH, 37° C., read-out: Mouse microsome (t1/2). On the procedure: as §1
Series [6] in a line: Metabolic stability in dog liver microsomes. It is filed as in vitro ADME, Beagle Dog. The settings on record: for half-life: Beagle dog liver microsomes, NADPH, 37° C., read-out: Dog microsome (t1/2). As for the experimental part: as §1
The nature of series [7]: Pharmacokinetics study in ICR mice. The settings on record: for clearance rate (in words) / half-life (in words) / oral absorption (in words) / oral exposure and bioavailability (in words): mice; for clearance rate (in words) / half-life (in words): administered intravenously; for oral absorption (in words) / oral exposure and bioavailability (in words): oral administration; for Vd / clearance / half-life / AUC / bioavailability / Cmax / Tmax: mouse, plasma, male ICR mice; for AUC: zero to 24 hours; for bioavailability: oral, p.o.: 10 mg/kg vs i.v.: 2 mg/kg. It is filed as in vivo. On the procedure: Solution used:10% DMSO+10% Solutol+80% (20% Hp-β-CD)
Single dose pharmacokinetic parameters were determined at Medicilon using male ICR mice (3 […] per group, 2 groups). Groups were dosed i.v. (2 mg/kg) or p.o. (10 mg/kg) and blood samples were taken via submandibular or saphenous vein at the following time points post dosing: 0.083 (i.v. only), 0.25, 0.5, 1, 2, 4, 6 (p.o. only), 8 and 24 h. An aliquot of 50 μL of blood plasma was protein precipitated with 250 μL internal standard solution (200 ng/mL tolbutamide in MeOH), the mixture was vortex-mixed for 1 min and centrifuged at 14,000 rpm for 5 min. The concentration of the test compound in the plasma samples was determined using LC-MS/MS with the peak areas compared to a calibration curve determined using 5-5000 ng/mL test compound in ICR mice plasma. […] Cmax represents peak plasma concentration of the drug; Tmax represents the time to reach Cmax; T1/2 represents elimination half-life or the time taken for Cmax to drop in half; Cl represents clearance; Vd represents apparent volume of distribution; F represents bioavailability; p.o. represents oral administration; and i.v. represents intravenous injection.

Structures are written as SMILES.

T1 sequence (Q9NWZ3 whole entry): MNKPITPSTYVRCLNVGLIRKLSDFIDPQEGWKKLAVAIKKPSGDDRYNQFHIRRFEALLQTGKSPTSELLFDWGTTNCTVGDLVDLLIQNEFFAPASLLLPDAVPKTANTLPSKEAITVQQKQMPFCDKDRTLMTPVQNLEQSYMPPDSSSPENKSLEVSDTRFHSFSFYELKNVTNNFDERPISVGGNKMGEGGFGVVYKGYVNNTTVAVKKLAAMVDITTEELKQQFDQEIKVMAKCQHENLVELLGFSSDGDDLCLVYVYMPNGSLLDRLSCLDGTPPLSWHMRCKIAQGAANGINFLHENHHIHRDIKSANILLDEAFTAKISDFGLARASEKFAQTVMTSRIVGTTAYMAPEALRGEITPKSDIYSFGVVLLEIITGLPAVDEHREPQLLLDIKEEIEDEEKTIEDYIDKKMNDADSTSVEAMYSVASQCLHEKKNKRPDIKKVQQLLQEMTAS

For `Cn1cc(-c2cccc(NC(=O)c3cc4c(nc3N3CCC(O)CC3)OC(C)(C)C4)n2)cn1` [Compound B5, 6-(4-Hydroxypiperidin-1-yl)-2,2-dimethyl-N-(6-(1-methyl-1H-pyrazol-4-yl)pyridin-2-yl)-2,3-dihydrofuro[2,3-b]pyridine-5-carboxamide], the 50% inhibitory concentration (IC50) at IRAK4 [1] worked out at 7.6 nM. Besides, on IRAK4 [2], the “binding affinities to IRAK4 (in words)” value is listed as “high binding affinities” and binding was characterised by a dissociation constant (Kd) of 0.69 nM. For the same molecule, in series [3], the “metabolic stability in liver microsomes of human (in words)” value is given as “good metabolic stability” and the half-life is above 2.42 h. In addition, in series [4], the half-life was above 2.42 h and the “metabolic stability in liver microsomes of rat (in words)” value was “good metabolic stability”. In addition, in series [5], the half-life stood at 1.18 h and the “metabolic stability in liver microsomes of mouse (in words)” value is “moderate metabolic stability”. In addition, in series [6], the half-life was above 2.42 h and the “metabolic stability in liver microsomes of dog (in words)” value was “good metabolic stability”. In series [7], the “clearance rate (in words)” value is listed as “low clearance rate”; the “half-life (in words)” value is on record as “good half-life”; the “oral absorption (in words)” value was “well absorbed orally”; the “oral exposure and bioavailability (in words)” value was “extremely high oral exposure and bioavailability”. Further, the bioavailability in series [7] was 91%. In series [7] (iv, i.v.: 2 mg/kg), the Vd came to 3.6 L/kg, the clearance stood at 13.6 mL/min/kg, the half-life is 3.1 h and the AUC was 2450 ng·h/mL. Further, in series [7] (po, p.o.: 10 mg/kg), the Cmax was determined as 1460 ng/mL, the time to peak (Tmax) worked out at 2 h and the AUC worked out at 9990 ng·h/mL.

In the case of `Cn1cc(-c2cccc(NC(=O)c3cc4oc(N5CCOCC5)nc4nc3N3CCC(O)CC3)n2)cn1` [Compound A4, 5-(4-hydroxypiperidin-1-yl)-N-(6-(1-methyl-1H-pyrazol-4-yl)pyridin-2-yl)-2-morpholinooxazolo[4,5-b]pyridine-6-carboxamide], the “activity, times better than that of the positive control compound CA4948” value at IRAK4 [1] (IRAK4 kinase inhibition relative to CA4948) is reported as “more than 10 times”. Further, the half-inhibitory concentration (IC50) on IRAK4 [1] turned out to be 11 nM. On IRAK4 [2], the “binding affinities to IRAK4 (in words)” value was “high binding affinities” and binding was put at a Kd of 0.59 nM. In addition, in series [3], the “metabolic stability in liver microsomes of human (in words)” value is listed as “good metabolic stability” and the half-life was above 2.42 h. In series [4], the half-life came out at 1.53 h and the “metabolic stability in liver microsomes of rat (in words)” value was “good metabolic stability”. For the same molecule, in series [5], the half-life was above 2.42 h and the “metabolic stability in liver microsomes of mouse (in words)” value was “good metabolic stability”. Moreover, in series [6], the half-life is 1.7 h and the “metabolic stability in liver microsomes of dog (in words)” value is on record as “good metabolic stability”. Also, in series [7], the “clearance rate (in words)” value is “low clearance rate”; the “half-life (in words)” value was “good half-life”; the “oral absorption (in words)” value is given as “well absorbed orally”; the “oral exposure and bioavailability (in words)” value is “extremely high oral exposure and bioavailability”. For the same molecule, the bioavailability in series [7] was 130%. In series [7] (iv, i.v.: 2 mg/kg), this molecule gave a Vd of 0.98 L/kg, a clearance of 8.1 mL/min/kg, a half-life of 1.4 h and an area under the curve (AUC) of 4050 ng·h/mL. Further, in series [7] (po, p.o.: 10 mg/kg), the concentration peaked (Cmax) at 8580 ng/mL, the Tmax was 1.17 h and the AUC was found to be 26400 ng·h/mL.

The term IC50 denotes the concentration at which inhibition is half-maximal. As a reminder, the Kd is the constant that tells how readily two partners part at equilibrium. Lower therefore signals tighter binding. What is called Vd is the apparent volume that relates the amount in the body to the concentration in plasma or blood. Low readings indicate confinement near the circulation, high ones extensive tissue distribution. A word on the clearance: it is a measure of how efficiently the substance is removed, as volume per time. Lower therefore signals inefficient removal. For orientation: AUC means the area under the concentration-time curve, a measure of exposure. Low readings indicate low exposure, high ones high exposure. Broadly, the Cmax is the highest concentration seen after dosing. What is called Tmax is the time at which the peak concentration occurs.

The values are drawn from patent US20250074919A1, “Heteroaryl compounds as inhibitors of irak4, compositions and applications thereof” (Accro Bioscience (HK) Limited, priority 2021, published 2025).
